The term IC50 denotes the point on the concentration scale where inhibition reaches its midpoint. A high value points to lower potency.

Here are results for 46 compounds from patent US20100298285A1, “Biclycloheteroaryl Compounds as P2x7 Modulators and Uses Thereof” (priority 2006, published 2010).

The test system of the test is IL-1β release, THP-1 cells. As to the kind of experiment: IL-1β release assay in differentiated THP-1 cells stimulated with BzATP (Example 9). It is filed as cell-based. The note with it: Homo sapiens; for inhibition at 0.3 µM: 0.3 μM compound ("+" symbols); for inhibition at 0.3 µM / inhibition at 0.1 µM: differentiated THP-1 cells, 250 uM BzATP, read-out: IL-1β% Inhib. @ 0.3 or 0.1 μM; for IC50: THP-1 cells, BzATP 250 uM, four parameter logistic fit; for inhibition at 0.1 µM: 0.1 μM compound ("*" symbols). As for the experimental part:
THP-1 cells (ATCC Cat # 285-IF-100) are plated in 96 well plates at a concentration of 200,000 cells per well and allowed to differentiate in RPMI-1640 media (ATCC Cat # 30-2001) containing 10% FBS, 100 IU/mL penicillin, 100 ug/mL streptomycin, 100 ng/mL LPS and 100 ng/mL IFN-γ for 16 hours. Following differentiation, the cells are treated for an additional 2 hours in RPMI-1640 media containing 100 IU/mL penicillin, 100 ug/mL streptomycin and fresh LPS at 100 ng/mL. The cells are then pretreated for 30 minutes with the compound of interest at the appropriate concentration in RPMI media containing 100 IU/mL penicillin, 100 ug/mL streptomycin. Following the pretreatment 2′,3′-O-(4-benzoylbenzoyl)-adenosine 5′-triphosphate (Sigma Aldrich Cat # B6396) is added to a final concentration of 250 uM and the cells are incubated for an additional 45 minutes. 30 uL of cell supernatant is then collected and IL-1β levels determined via ELISA (R&D systems Cat. # HSLB50) according to manufacturer's recommendations using the Tecan Safire plate reader. Background adjusted IL-1β levels of drug treated and non-treated cells are used to calculate the percent inhibition.
The following compounds have been or can be prepared according to the synthetic methods described above. For the purpose of Table 1 below, activity of each compound, which can be determined using the IL-1β assay method described in Example 9, is expressed as follows: […]
The compounds set forth in Table 1 were tested for activity in a cellular model as described herein. Specifically, cells were pretreated with differing amounts of the compound under test and released IL-1β determined as in Example 9, above. Measurements were made and IC50 values, presented in Table 2, below, were determined by fitting the data to a four parameter logistic equation using GraphPad Prism software (GraphPad Software, Inc). The equation may be expressed by the following formula:
Y=Bottom+(Top−Bottom)/(1+10̂((Log EC50−X)*HillSlope))
Where X is the logarithm of concentration, Y is the response and Y starts at Bottom and goes to Top with a sigmoid shape.

Turning to `O=C(Cc1ccc(C(F)(F)F)cc1)Nc1c(Cl)ccc2c1CCN(S(=O)(=O)c1ccccc1Cl)C2` [Compound 3001, N-[6-Chloro-2-(2-chloro-benzenesulfonyl)-1,2,3,4-tetrahydro-isoquinolin-5-yl]-2-(4-trifluoromethyl-phenyl)-acetamide], the inhibition at 0.3 µM was not below 76% and the half-inhibitory concentration (IC50) was found to be 49.3 nM.

For `O=C(Cc1ccc(C(F)(F)F)cc1)Nc1c(Cl)ccc2c1CCN(S(=O)(=O)c1ccccc1F)C2` [Compound 3002], the inhibition at 0.1 µM lay within 0 to 25%.

With `O=C(Cc1ccc(C(F)(F)F)cc1)Nc1c(Cl)ccc2c1CCN(S(=O)(=O)c1cccc(F)c1)C2` [Compound 3003], the inhibition at 0.1 µM lay within 0 to 25%.

`O=C(Cc1ccc(C(F)(F)F)cc1)Nc1c(Cl)ccc2c1CCN(S(=O)(=O)c1ccc(F)cc1)C2` [Compound 3004]: the inhibition at 0.1 µM was in the range of 0 to 25%.

`O=C(Cc1ccc(C(F)(F)F)cc1)Nc1c(Cl)ccc2c1CCN(S(=O)(=O)c1ccc(F)c(F)c1)C2` [Compound 3005]: the inhibition at 0.1 µM lay in the range of 0 to 25%.

In the case of `O=C(Cc1ccc(C(F)(F)F)cc1)Nc1c(Cl)ccc2c1CCN(S(=O)(=O)c1cc(F)cc(F)c1)C2` [Compound 3006], the inhibition at 0.1 µM was in the range of 0 to 25%.

Regarding `O=C(Cc1ccc(C(F)(F)F)cc1)Nc1c(Cl)ccc2c1CCN(S(=O)(=O)c1ccc(F)cc1F)C2` [Compound 3007], the inhibition at 0.1 µM was in the range of 0 to 25%.

In the case of `O=C(Cc1ccc(C(F)(F)F)cc1)Nc1c(Cl)ccc2c1CCN(S(=O)(=O)c1cc(F)ccc1F)C2` [Compound 3008], the inhibition at 0.1 µM lay within 0 to 25%.

Regarding `O=C(Cc1ccc(C(F)(F)F)cc1)Nc1c(Cl)ccc2c1CCN(S(=O)(=O)c1c(F)cccc1F)C2` [Compound 3009], the inhibition at 0.1 µM is 0 to 25%.

As to `Cc1cc(F)ccc1S(=O)(=O)N1CCc2c(ccc(Cl)c2NC(=O)Cc2ccc(C(F)(F)F)cc2)C1` [Compound 3010], the inhibition at 0.1 µM is 0 to 25%.

For `Cc1ccc(F)cc1S(=O)(=O)N1CCc2c(ccc(Cl)c2NC(=O)Cc2ccc(C(F)(F)F)cc2)C1` [Compound 3011], the inhibition at 0.1 µM lay in the range of 0 to 25%.

`O=C(Cc1ccc(C(F)(F)F)cc1)Nc1c(Cl)ccc2c1CCN(S(=O)(=O)c1cccc(Cl)c1)C2` [Compound 3012]: the inhibition at 0.1 µM is 0 to 25%.

On to `O=C(Cc1ccc(C(F)(F)F)cc1)Nc1c(Cl)ccc2c1CCN(S(=O)(=O)c1ccc(Cl)cc1)C2` [Compound 3013], for which the inhibition at 0.1 µM was 0 to 25%.

Regarding `O=C(Cc1ccc(C(F)(F)F)cc1)Nc1c(Cl)ccc2c1CCN(S(=O)(=O)c1cccc(Cl)c1Cl)C2` [Compound 3014], the inhibition at 0.1 µM was in the range of 0 to 25%.

As for `O=C(Cc1ccc(C(F)(F)F)cc1)Nc1c(Cl)ccc2c1CCN(S(=O)(=O)c1cc(Cl)cc(Cl)c1)C2` [Compound 3015], the inhibition at 0.1 µM was in the range of 0 to 25%.

With `O=C(Cc1ccc(C(F)(F)F)cc1)Nc1c(Cl)ccc2c1CCN(S(=O)(=O)c1ccc(Cl)cc1F)C2` [Compound 3016], the inhibition at 0.1 µM was 0 to 25%.

With `O=C(Cc1ccc(C(F)(F)F)cc1)Nc1c(Cl)ccc2c1CCN(S(=O)(=O)c1ccc(F)cc1Cl)C2` [Compound 3017], the inhibition at 0.1 µM was in the range of 0 to 25%.

For `O=C(Cc1ccc(C(F)(F)F)cc1)Nc1c(Cl)ccc2c1CCN(S(=O)(=O)c1cc(Cl)ccc1F)C2` [Compound 3018], the inhibition at 0.1 µM was in the range of 0 to 25%.

For `O=C(Cc1ccc(C(F)(F)F)cc1)Nc1c(Cl)ccc2c1CCN(S(=O)(=O)c1cccc(Cl)c1F)C2` [Compound 3019], the inhibition at 0.1 µM is 0 to 25%.

For `O=C(Cc1ccc(C(F)(F)F)cc1)Nc1c(Cl)ccc2c1CCN(S(=O)(=O)c1ccc(Cl)c(C(F)(F)F)c1)C2` [Compound 3020], the inhibition at 0.1 µM lay in the range of 0 to 25%.

With `O=C(Cc1ccc(C(F)(F)F)cc1)Nc1c(Cl)ccc2c1CCN(S(=O)(=O)c1ccc(C(F)(F)F)cc1Cl)C2` [Compound 3021], the inhibition at 0.1 µM is 0 to 25%.

On to `O=C(Cc1ccc(C(F)(F)F)cc1)Nc1c(Cl)ccc2c1CCN(S(=O)(=O)c1cc(C(F)(F)F)ccc1Cl)C2` [Compound 3022], for which the inhibition at 0.1 µM was in the range of 0 to 25%.

As to `Cc1ccccc1S(=O)(=O)N1CCc2c(ccc(Cl)c2NC(=O)Cc2ccc(C(F)(F)F)cc2)C1` [Compound 3023], the inhibition at 0.1 µM lay within 0 to 25%.

As to `Cc1cccc(S(=O)(=O)N2CCc3c(ccc(Cl)c3NC(=O)Cc3ccc(C(F)(F)F)cc3)C2)c1` [Compound 3024], the inhibition at 0.1 µM lay within 0 to 25%.

As for `Cc1ccc(C)c(S(=O)(=O)N2CCc3c(ccc(Cl)c3NC(=O)Cc3ccc(C(F)(F)F)cc3)C2)c1` [Compound 3025], the inhibition at 0.3 µM was not below 76% and the 50% inhibitory concentration (IC50) stood at 84 nM.

Regarding `Cc1ccc(S(=O)(=O)N2CCc3c(ccc(Cl)c3NC(=O)Cc3ccc(C(F)(F)F)cc3)C2)c(C)c1` [Compound 3026], the inhibition at 0.1 µM fell in the range of 0 to 25%.

In the case of `N#Cc1ccccc1S(=O)(=O)N1CCc2c(ccc(Cl)c2NC(=O)Cc2ccc(C(F)(F)F)cc2)C1` [Compound 3027], the inhibition at 0.1 µM is 0 to 25%.

For the compound `N#Cc1cccc(S(=O)(=O)N2CCc3c(ccc(Cl)c3NC(=O)Cc3ccc(C(F)(F)F)cc3)C2)c1` [Compound 3028], the inhibition at 0.1 µM was 0 to 25%.

In the case of `N#Cc1ccc(S(=O)(=O)N2CCc3c(ccc(Cl)c3NC(=O)Cc3ccc(C(F)(F)F)cc3)C2)cc1` [Compound 3029], the inhibition at 0.1 µM fell in the range of 0 to 25%.

`COc1cccc(S(=O)(=O)N2CCc3c(ccc(Cl)c3NC(=O)Cc3ccc(C(F)(F)F)cc3)C2)c1` [Compound 3030]: the inhibition at 0.1 µM was 0 to 25%.

`O=C(Cc1ccc(C(F)(F)F)cc1)Nc1c(Cl)ccc2c1CCN(S(=O)(=O)c1ccccc1C(F)(F)F)C2` [Compound 3031]: the inhibition at 0.1 µM was in the range of 0 to 25%.

As to `O=C(Cc1ccc(C(F)(F)F)cc1)Nc1c(Cl)ccc2c1CCN(S(=O)(=O)c1cccc(C(F)(F)F)c1)C2` [Compound 3032], the inhibition at 0.1 µM is 0 to 25%.

Regarding `O=C(Cc1ccc(C(F)(F)F)cc1)Nc1c(Cl)ccc2c1CCN(S(=O)(=O)c1ccc(C(F)(F)F)cc1)C2` [Compound 3033], the inhibition at 0.1 µM was 0 to 25%.

With `O=C(Cc1ccc(C(F)(F)F)cc1)Nc1c(Cl)ccc2c1CCN(S(=O)(=O)c1ccccc1OC(F)(F)F)C2` [Compound 3034], the inhibition at 0.1 µM lay in the range of 0 to 25%.

For `CN(C)CCC(=O)N1CCc2c(cccc2NC(=O)Cc2ccc(C(F)(F)F)c(F)c2)C1` [Compound 3035], the inhibition at 0.1 µM lay within 0 to 25% and the concentration for half-maximal inhibition (IC50) was determined as 967 nM.

`O=C(Cc1ccc(C(F)(F)F)c(F)c1)Nc1cccc2c1CCN(C(=O)C1COc3ccccc3O1)C2` (stereo not drawn) [Compound 3036]: the inhibition at 0.3 µM lay in the range of 0 to 25% and the IC50 is more than 1000 nM.

In the case of `O=C(Cc1ccc(C(F)(F)F)c(F)c1)Nc1cccc2c1CCN(C(=O)[C@H]1COc3ccccc3O1)C2` [Compound 3037], the inhibition at 0.3 µM is not below 76% and it took 145 nM to reach half-maximal inhibition (IC50).

Turning to `O=C(Cc1ccc(C(F)(F)F)c(F)c1)Nc1cccc2c1CCN(C(=O)C1CCOCC1)C2` [Compound 3038], the inhibition at 0.3 µM is 0 to 25% and 430 nM corresponded to half-maximal inhibition (IC50).

Consider `O=C(Cc1ccc(C(F)(F)F)c(F)c1)Nc1cccc2c1CCN(C(=O)C1CCOC1)C2` (stereo not drawn) [Compound 3039], for which the inhibition at 0.3 µM was 26 to 50% and the half-inhibitory concentration (IC50) is 443 nM.

In the case of `O=C(Cc1ccc(C(F)(F)F)c(F)c1)Nc1cccc2c1CCN(C(=O)C1COc3ccccc3C1)C2` (stereo not drawn) [Compound 3040], the inhibition at 0.3 µM is not below 76% and the IC50 is 64.2 nM.

`O=C(Cc1ccc(C(F)(F)F)c(F)c1)Nc1cccc2c1CCN(C(=O)C1CC1)C2` [Compound 3041]: the inhibition at 0.3 µM lay in the range of 0 to 25% and it took 495 nM to reach half-maximal inhibition (IC50).

On to `O=C(Cc1ccc(C(F)(F)F)c(F)c1)Nc1cccc2c1CCN(C(=O)CC1CCCCC1)C2` [Compound 3042], for which the inhibition at 0.3 µM is not below 76% and the IC50 was found to be 153 nM.

On to `O=C(Cc1ccc(C(F)(F)F)c(F)c1)Nc1cccc2c1CCN(C(=O)CC1CCCCCC1)C2` [Compound 3043], for which the inhibition at 0.3 µM was not below 76% and 82.5 nM corresponded to half-maximal inhibition (IC50).

As for `Cc1ncccc1C(=O)N1CCc2c(cccc2NC(=O)Cc2ccc(C(F)(F)F)c(F)c2)C1` [Compound 3044], the inhibition at 0.3 µM was 0 to 25% and the IC50 was more than 1000 nM.

Consider `CC(C)(C)OC(=O)NC(Cc1ccccc1)C(=O)N1CCc2c(cccc2NC(=O)Cc2ccc(C(F)(F)F)c(F)c2)C1` (stereo not drawn) [Compound 3045], for which the inhibition at 0.3 µM was 26 to 50% and the midpoint of inhibition, the IC50, lay at 385 nM.

In the case of `CC(C)(C)OC(=O)N1CCC(OCC(=O)N2CCc3c(cccc3NC(=O)Cc3ccc(C(F)(F)F)c(F)c3)C2)CC1` [Compound 3047], the inhibition at 0.3 µM was in the range of 51 to 75% and half-maximal inhibition (IC50) required 199 nM.
